The text below walks through data of patent publication US12365658B2, “Benzothia(di)azepine compounds and their use as bile acid modulators” (Albireo AB, priority 2021, dated 2025).

The data set has as its system Caco-2 cells. Put plainly: Bidirectional permeability assay (Caco-2 cells). In kind it is in vitro ADME. The settings on record: 10 μM in FaSSIF buffer, 120 minutes; for Permeability (Caco-2) Papp A2B: absorptive direction (A2B); for Permeability (Caco-2) Papp B2A: secretory direction (B2A). On the procedure:
Bidirectional Permeability Assay (Caco-2 Cells)
Caco-2 cells (Evotec) were seeded at a density of 70,000 cells/well in Millicell® 24-well cell culture insert plates and maintained in an incubator (37° C., 5% CO2, 95% RH) for 21 days with media change on alternate days.
Stock solutions (10 mM) of the test compounds, atenolol (low permeability marker), propranolol (high permeability marker) and digoxin (substrate for P-gp transport pathway) were prepared in dimethylsulfoxide (DMSO). An intermediate stock solution (1 mM) was prepared by diluting 10 μL of 10 mM master stock solution with 90 μL of neat DMSO. A working stock solution (10 μM) was prepared by diluting 50 μL of 1 mM with 4950 μL of FaSSIF buffer. Post addition of compounds to the FaSSIF, samples were subjected to sonication for 2 hours, and centrifuged at 4000 RPM for 30 minutes at 37° C. The 4 mL of resultant supernatant was directly used in the assay. The final DMSO concentration in the transport experiments was 1%.
On the day of assay, Caco-2 monolayers were washed twice with transport buffer (HBSS, pH 7.4) and pre-incubated for 30 min (37° C., 5% CO2, 95% RH) in an incubator. The electrical resistance of the monolayers was measured with a Millicell®-ERS system. Monolayers with trans-epithelial electrical resistance (TEER) values greater than 350 ohm·cm^2 were selected for the assay.
The assay was conducted in absorptive direction (A2B) and secretory (B2A) directions. Transport experiments were initiated by addition of transport assay buffer (FaSSIF buffer prepared in HBSS) consisting of compounds to the donor compartment (apical chamber A-B; basolateral chamber B-A) in duplicate (n=2) wells. Drug free HBSS buffer (pH 7.4) containing 1% bovine serum albumin (BSA) was introduced to the receiver (A-B-basolateral; B-A-Apical) compartments. The volumes of apical and basolateral compartments were 0.4 and 0.8 mL, respectively. After adding dosing solution, plates were incubated in an incubator for 120 minutes at 37° C. After 120 minutes, donor and receiver samples were collected and matrix matched (1:1, 30 μL study sample+30 μL blank buffer) with the opposite buffer. Dosing samples matrix matched (1:1, 30 μL study sample+30 μL blank buffer) with the opposite buffer. Samples were processed by adding acetonitrile containing internal standard (60 μL study sample+200 μL acetonitrile containing internal standard-Tolbutamide, 500 ng/mL). Samples were vortexed and centrifuged at 4000 rpm for 10 minutes. The obtained supernatant (100 μL) was diluted with 100 μL of water and transferred to fresh 96 well plates. The concentration of compounds in the samples was analyzed by liquid chromatography tandem mass spectrometry (LC-MS/MS) method using discovery grade bio-analytical method, as applicable.
The mean apparent permeability (Papp, ×10^−6 cm/sec) of the test compounds, atenolol, propranolol and digoxin were calculated as follows:
where dq/dt=rate of transport (rate of transport of compound in the receiver compartment), C0=initial concentration in the donor compartment, A=surface area of the effective filter membrane.
(In general: Caco-2 monolayers are a common model of the intestinal barrier.)

`CCCCC1CN(c2ccccc2)c2cc(SC)c(OCC(C)(OC)C(=O)O)cc2S(=O)(=O)N1C` (single isomer, unassigned) [24, diastereomer 1]: the “Permeability (Caco-2) Papp A2B” value came to 8.6 ×10⁻⁶ cm/s and the “Permeability (Caco-2) Papp B2A” value amounted to 15.9 ×10⁻⁶ cm/s.
`CCCCC1CN(c2ccccc2)c2cc(SC)c(OCC(C)(OC)C(=O)O)cc2S(=O)(=O)N1C` (single isomer, unassigned) [24, diastereomer 2]: the “Permeability (Caco-2) Papp A2B” value was determined as 16.3 ×10⁻⁶ cm/s and the “Permeability (Caco-2) Papp B2A” value was 24 ×10⁻⁶ cm/s.
